Laboratory results from US6146853A, “Cyclic depsipeptide PF 1022G” (Meiji Seika Kaisha Ltd., priority 1996, dated 2000).

How the values were obtained:
[1] = Anthelmintic activities (general statement); details: no parasite or test named
[2] = Solubilities (physico-chemical properties); type: physicochemical

For CC(C)C[C@H]1C(=O)O[C@H](C)C(=O)N(C)[C@@H](CC(C)C)C(=O)O[C@H](C)C(=O)N(C)[C@@H](CC(C)C)C(=O)O[C@H](C)C(=O)N(C)[C@@H](CC(C)C)C(=O)O[C@H](C)C(=O)N1C [PF 1022F substance], the anthelmintic activities [1] was “having anthelmintic activities”, the “Solubilities: soluble in” value ([2]; chloroform, acetone, ethyl acetate, methanol and dimethylsulfoxide) was “Soluble” and the “Solubilities: insoluble in” value ([2]; water and n-hexane) was “Insoluble”. For the same compound, the solubility in water ([2]; water, statement in the recovery description) was “insoluble in water”.
